Laboratory results reported in patent US9505796B2, “Phosphorylated A2A receptor agonists” (Crozet Medical GMBH, priority 2006, dated 2016).
“And” between values parts separate entries of the source, which are not always exact repeats. Equal entries are not always repeated.

What was measured:
[1] = molecular target: T1, A2A receptor rat brain striatal membranes (Rattus norvegicus, UniProt P30543); assay: A2A adenosine receptor radioligand binding, rat brain striatal membranes
T1 construct: A2A receptor rat brain; from tissue; host or cells: rat brain striatal membranes
T1 sequence (P30543 whole entry): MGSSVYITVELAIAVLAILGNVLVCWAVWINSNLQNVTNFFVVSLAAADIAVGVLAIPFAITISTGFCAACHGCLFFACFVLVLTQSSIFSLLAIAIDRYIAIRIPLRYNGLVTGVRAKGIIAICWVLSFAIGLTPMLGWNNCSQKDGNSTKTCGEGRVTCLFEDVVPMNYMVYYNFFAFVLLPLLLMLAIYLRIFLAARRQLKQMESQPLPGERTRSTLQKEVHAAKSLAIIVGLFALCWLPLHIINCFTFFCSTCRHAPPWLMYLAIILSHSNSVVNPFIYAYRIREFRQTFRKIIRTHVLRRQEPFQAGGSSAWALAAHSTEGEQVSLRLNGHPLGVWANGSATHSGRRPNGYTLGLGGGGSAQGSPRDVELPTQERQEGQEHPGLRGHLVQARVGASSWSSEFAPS
Excerpt: (§1) Tris was obtained from Acros Organics (Leverkusen, Germany); DMSO was from Fluka (Switzerland), HCl was from Merck, HAT supplement from Gibco. [^3H]CCPA ([^3H]2-chloro-N^6-cyclopentyladenosine), [^3H]MSX-2 ([^3H]3-(3-hydroxypropyl)-7-methyl-8-(m-methoxy-styryl)-1-propargylxanthine) (84 Ci/mmol), and [^3H]DSB-11 ([^3H]8-ethyl-4-methyl-2-phenyl-(8R)-4,5,7,8-tetrahydro-1H-imidazo[2,1-i]-purin-5-one (53 Ci/mmol)) were custom-labeled by Amersham. All other chemical reagents, cell culture materials and adenosine receptor ligands were obtained from Sigma.
(§2) Radioligand binding studies were performed as previously described.^7,8

[2] = molecular target: T2, A1 receptor rat brain cortical membranes (Rattus norvegicus, UniProt P25099); assay: A1 adenosine receptor radioligand binding vs. [3H]CCPA; conditions: rat brain cortical membranes vs. [3H]CCPA (agonist radioligand)
T2 construct: A1 receptor rat brain; from tissue; host or cells: rat brain cortical membranes
T2 sequence (P25099 1-326): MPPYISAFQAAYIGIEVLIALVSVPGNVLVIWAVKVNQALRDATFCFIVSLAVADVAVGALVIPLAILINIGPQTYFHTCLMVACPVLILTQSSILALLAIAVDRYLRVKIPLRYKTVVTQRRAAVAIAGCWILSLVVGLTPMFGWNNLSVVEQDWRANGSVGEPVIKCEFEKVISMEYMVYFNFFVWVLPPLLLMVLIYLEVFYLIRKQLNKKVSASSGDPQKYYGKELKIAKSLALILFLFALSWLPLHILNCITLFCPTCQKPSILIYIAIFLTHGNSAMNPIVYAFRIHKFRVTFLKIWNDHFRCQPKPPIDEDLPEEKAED
Excerpt: as §1, §2

[3] = molecular target: T3, A3 receptor human recombinant receptors expressed in CHO cells (Homo sapiens, UniProt P0DMS8); assay: A3 adenosine receptor radioligand binding vs. [3H]PSB-11; conditions: human recombinant receptors in CHO cells vs. [3H]PSB-11 (antagonist radioligand; agonist affinities underestimated)
T3 construct: expressed in transfected cells; host or cells: CHO cells
T3 sequence (P0DMS8 1-318): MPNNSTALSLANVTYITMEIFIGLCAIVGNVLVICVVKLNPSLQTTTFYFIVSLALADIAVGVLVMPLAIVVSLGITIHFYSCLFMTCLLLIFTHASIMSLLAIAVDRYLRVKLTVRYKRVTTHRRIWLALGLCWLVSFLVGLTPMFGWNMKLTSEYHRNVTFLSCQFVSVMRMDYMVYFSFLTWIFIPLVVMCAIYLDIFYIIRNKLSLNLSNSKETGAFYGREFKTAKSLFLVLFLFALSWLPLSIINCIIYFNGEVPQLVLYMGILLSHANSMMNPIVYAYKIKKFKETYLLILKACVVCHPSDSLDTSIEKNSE
Excerpt: as §1, §2

[4] = molecular target: T4, recombinant soluble glutathione-S-transferase/ecto-5′-nucleotidase fusion protein (rat enzyme) (Rattus norvegicus, UniProt P21588); assay: Ecto-5′-nucleotidase substrate specificity assay by capillary electrophoresis; format: biochemical; conditions: 500 μM nucleoside 5′-monophosphate, 37° C., 20 min; relative to AMP set at 100%; n = 3
T4 construct: Catalytically active recombinant soluble glutathione-S-transferase/ecto-5′-nucleotidase fusion protein; Dr. Herbert Zimmermann, University of Frankfurt (gift); host or cells: insect cells, baculovirus system
T4 sequence (P21588 29-551 limits assumed): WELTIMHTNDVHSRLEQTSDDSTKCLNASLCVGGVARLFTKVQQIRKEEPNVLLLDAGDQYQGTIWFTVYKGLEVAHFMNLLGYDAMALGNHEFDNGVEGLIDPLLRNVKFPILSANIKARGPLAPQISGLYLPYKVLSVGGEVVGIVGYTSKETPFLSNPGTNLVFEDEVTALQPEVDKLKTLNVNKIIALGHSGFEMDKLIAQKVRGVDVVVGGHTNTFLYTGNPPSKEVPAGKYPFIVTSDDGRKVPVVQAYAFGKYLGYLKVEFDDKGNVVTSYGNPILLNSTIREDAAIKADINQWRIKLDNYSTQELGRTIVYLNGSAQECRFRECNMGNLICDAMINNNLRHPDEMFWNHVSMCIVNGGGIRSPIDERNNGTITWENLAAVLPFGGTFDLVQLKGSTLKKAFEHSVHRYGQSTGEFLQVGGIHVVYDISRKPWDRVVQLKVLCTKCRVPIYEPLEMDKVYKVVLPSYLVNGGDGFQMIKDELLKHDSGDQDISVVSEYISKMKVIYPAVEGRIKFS
Procedure: Catalytically active recombinant soluble glutathione-S-transferase/ecto-5′-nucleotidase fusion protein (rat enzyme) was expressed in insect cells using the baculovirus system and purified by affinity chromatography using agarose-coupled GSH as previously described.^6 The enzyme was obtained from Prof. Dr. Herbert Zimmermann, University of Frankfurt.
Compounds were dissolved in DMSO to obtain 5.0 mM stock solutions. These were further diluted to obtain 1 mM solutions in assay buffer (10 mM Hepes, pH 7.4, 2 mM MgCl2, 1 mM CaCl2). The 1 mM solutions were further diluted in the same buffer as required for the standard calibration curves and the enzyme assays.
CE separations were carried out using a P/ACE MDQ system (Beckman Coulter Instruments, Fullerton, Calif., USA) equipped with a DAD detection system. The electrophoretic separations were carried out using an eCAP fused-silica capillary [30 cm (20 cm effective length), ×75 μm internal diameter (I.D), ×375 μm outside diameter (0.D) obtained from Beckman Coulter]. The following conditions were applied: T=25° C., λmax=232 nm, voltage=15 kV, running buffer 40 mM sodium borate buffer, pH 9.1. The capillary was washed with 0.1 M NaOH for 2 min, deionized water for 1 min, and running buffer for 1 min before each injection. Injections were made by applying 0.1 psi of pressure to the sample solution for 30 s. The amount of adenosine or other nucleosides formed was determined. The CE instrument was fully controlled through a personal computer, which operated with the analysis software 32 KARAT obtained from Beckman Coulter. Electropherograms were evaluated using the same software.
Ecto-5′-nucleotidase substrate specificity assays were performed by using capillary electrophoresis method. Enzyme substrate assays were carried out at 37° C. in a final volume of 100 μl. The reaction mixture contained 500 μM of the nucleoside 5′-monophosphate to be investigated dissolved in reaction buffer (10 mM Hepes, pH 7.4, 2 mM MgCl2, 1 mM CaCl2). The reactions were initiated by adding 10 μl of the appropriately diluted enzyme and was then allowed to proceed at 37° C. for 20 min. The reaction was stopped by heating the mixture at 99° C. for 5 min. Aliquots of 50 μl of the reaction mixture were transferred to mini CE vials and injected into the CE instrument under the conditions described above. The absorbance at 232 nm was monitored continuously and the nucleoside concentrations were determined from the area under each absorbance peak. The experiments were repeated twice with triplicate injections. Control experiments were performed in the absence of substrate and in the absence of enzyme in order to take into account the spontaneous hydrolysis of nucleoside-5′ monophosphates under the experimental conditions, which always amounted to less than 1%.
For the quantification of the dephosphorylation reaction products, we applied the internal normalization method. Thus, the individual peak areas reflected directly the relative content of a corresponding analyte. […] It was verified that in fact there were no observable differences in detector response at the used wavelength and thus no additional correction factors had to be employed for the calculation of the amount of product relative to the amount of substrate. This method is also completely independent of the amount of substrate injected into the capillary which represents 100% at zero reaction time.
Besides AMP, other nucleoside 5′-monophosphates (FIG. 1) were investigated as alternative substrates of ecto-5′-NT. All nucleotides (AMP) were used at a concentration of 500 μM in the presence of 2 mM MgCl2, 1 mM CaCl2, 10 mM Hepes, pH, 7.4, and suitably diluted ecto-5′-NT. Some of the nucleoside 5′-monophosphates were efficiently dephosphorylated to the corresponding nucleosides by the enzyme (Table 1).

[5] = rat brain striatal membranes vs. [3H]MSX-2 (antagonist radioligand; agonist affinities underestimated)

Compound	Dephosphorylation (%) by ecto-5′-nucleotidase in comparison with AMP [4]	Ki [3]	further results
2-(Benzylthio)adenosine-5′-monophosphate [Compound 8]		120 nM	Ki [1, 5]: 8560 nM; Ki [2]: 927 nM
2-(Cyclohexylethylthio)adenosine-5′-monophosphate [Compound 3]		3600 nM	
2-(Cyclohexylmethylthio)adenosine-5′-monophosphate [Compound 2]		1700 nM	
2-(Hexylthio)adenosine-5′-monophosphate [Compound 6]		2300 nM	Ki [1, 5]: 1000 nM; Ki [2]: 256 nM
2-(Phenylethylthio)adenosine-5′-monophosphate [Compound 9]		1200 nM	
2-(Propylthio)adenosine-5′-monophosphate [Compound 4]			Ki ([1]; rat brain striatal membranes vs. [3H]CGS21680 (agonist radioligand)): 1350 nM; Ki [2]: 1270 nM
Nc1ncnc2c1ncn2[C@@H]1O[C@H](COP(=O)(O)O)[C@@H](O)[C@H]1O [AMP, adenosine monophosphate, reference compound]	100 ± 1.15%		
Nc1nc(SC2CCCCC2)nc2c1ncn2[C@@H]1O[C@H](COP(=O)(O)O)[C@@H](O)[C@H]1O [Compound 1, 2-(Cyclohexylthio)adenosine-5′-monophosphate]	27.5 ± 1.45%		
CCCSc1nc(N)c2ncn([C@@H]3O[C@H](COP(=O)(O)O)[C@@H](O)[C@H]3O)c2n1 [Compound 4, 2-(Propylthio)adenosine-5′-monophosphate]	46.8 ± 10.5%		
C=CCSc1nc(N)c2ncn([C@@H]3O[C@H](COP(=O)(O)O)[C@@H](O)[C@H]3O)c2n1 [Compound 5, 2-(Allylthio)adenosine-5′-monophosphate]	0%		
Nc1nc(SCc2ccccc2)nc2c1ncn2[C@@H]1O[C@H](COP(=O)(O)O)[C@@H](O)[C@H]1O [Compound 8, 2-(Benzylthio)adenosine-5′-monophosphate]	0%		
C#CCSc1nc(N)c2ncn([C@@H]3O[C@H](COP(=O)(O)O)[C@@H](O)[C@H]3O)c2n1 [Example No. 10, 2-Propargylthioadenosine-5′-monophosphate]		10400 nM	Ki [2]: 994 nM

Continued, in another order:

Dephosphorylation (%) by ecto-5′-nucleotidase in comparison with AMP [4]	Compound	Ki [3]	further results
70.5 ± 1.17%	Nc1nc(SCC2CCCCC2)nc2c1ncn2[C@@H]1O[C@H](COP(=O)(O)O)[C@@H](O)[C@H]1O [Compound 2, 2-(Cyclohexylmethylthio)adenosine-5′-monophosphate]		
95% and 95.7 ± 1.15%	Nc1nc(SCCC2CCCCC2)nc2c1ncn2[C@@H]1O[C@H](COP(=O)(O)O)[C@@H](O)[C@H]1O [Compound 3, 2-(Cyclohexylethylthio)adenosine-5′-monophosphate]		
84.2 ± 2.61%	CCCCCCSc1nc(N)c2ncn([C@@H]3O[C@H](COP(=O)(O)O)[C@@H](O)[C@H]3O)c2n1 [Compound 6, 2-(Hexylthio)adenosine-5′-monophosphate]		
0%	Nc1nc(SCCc2ccccc2)nc2c1ncn2[C@@H]1O[C@H](COP(=O)(O)O)[C@@H](O)[C@H]1O [Compound 9, 2-(Phenylethylthio)adenosine-5′-monophosphate]		
